The record followed here is ChEMBL document CHEMBL5665443, “Enzyme Inhibitor Single Concentration assay results for EUbOPEN Chemogenomics Library” (2024).

Test [1] concerns the target G/T mismatch-specific thymine DNA glycosylase (Homo sapiens) (UniProt Q13569). As to conditions: Compound Concentration 10.0 uM.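 Further: human TDG cleavage of quenched duplex DNA oligonucleotides coupled to APE1, strand release read as fluorescence at 594 nm, inhibition of TDG activity.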
Description: Inhibition of TDG by quantifying inhibition of TDG-mediated cleavage and dissociation of quenched duplex DNA oligonucleotides, measured as fluorescence at 594 nm. To generate a functional strand incision and increase turn-over this assay is coupled to APE1.
For test [2], the target named is T1, Single-strand selective monofunctional uracil DNA glycosylase (Homo sapiens) (UniProt Q53HV7).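 Further: enzymatic SMUG1 assay coupled with APE1, reading fluorescence at 594 nm released when a quenched double-stranded DNA oligonucleotide substrate is cleaved and separated.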
T1 sequence (whole entry): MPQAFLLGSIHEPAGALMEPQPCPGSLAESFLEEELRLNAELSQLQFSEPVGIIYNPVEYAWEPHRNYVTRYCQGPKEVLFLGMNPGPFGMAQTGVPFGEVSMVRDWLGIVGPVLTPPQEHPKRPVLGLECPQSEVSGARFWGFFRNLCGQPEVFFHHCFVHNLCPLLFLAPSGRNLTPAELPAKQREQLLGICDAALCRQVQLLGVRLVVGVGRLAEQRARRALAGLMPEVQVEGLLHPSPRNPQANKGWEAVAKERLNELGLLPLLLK
Particulars: Compound Concentration 10.0 uM, Hit No.
Description: Inhibition of SMUG1 by quantifying inhibition of SMUG1-mediated cleavage and dissociation of quenched duplex DNA oligonucleotides, measured as fluorescence at 594 nm. To generate a functional strand incision and increase turn-over this assay is coupled to APE1.

Test [3] concerns the target Uracil-DNA glycosylase (Homo sapiens) (UniProt P13051). As to conditions: Compound Concentration 10.0 uM, Hit No.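 Further: UNG excision on a quenched double-stranded DNA oligo probe, with APE1 added for strand incision and turnover, read as fluorescence at 594 nm as strands separate.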
Description: Inhibition of UNG by quantifying inhibition of UNG-mediated cleavage and dissociation of quenched duplex DNA oligonucleotides, measured as fluorescence at 594 nm. To generate a functional strand incision and increase turn-over this assay is coupled to APE1.
For test [4], the target named is Endonuclease 8-like 1 (Homo sapiens) (UniProt Q96FI4). Particulars: Compound Concentration 10.0 uM, Hit No.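 Further: fluorescence at 594 nm from quenched duplex DNA oligonucleotides released by NEIL1 cleavage and strand separation, reported as reduction of this enzyme activity.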
Sequence of Endonuclease 8-like 1 (Homo sapiens) (Q96FI4 whole entry): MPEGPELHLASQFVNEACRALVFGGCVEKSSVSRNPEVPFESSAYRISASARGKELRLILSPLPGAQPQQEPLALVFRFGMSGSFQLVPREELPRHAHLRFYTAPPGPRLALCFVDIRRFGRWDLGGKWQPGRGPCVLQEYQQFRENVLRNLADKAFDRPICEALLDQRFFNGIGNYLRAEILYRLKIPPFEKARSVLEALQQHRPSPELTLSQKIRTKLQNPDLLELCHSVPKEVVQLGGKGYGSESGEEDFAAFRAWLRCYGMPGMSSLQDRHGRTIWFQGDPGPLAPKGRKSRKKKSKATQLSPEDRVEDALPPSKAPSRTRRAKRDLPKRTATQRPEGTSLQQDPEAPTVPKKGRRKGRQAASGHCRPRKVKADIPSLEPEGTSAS
Description: Inhibition of NEIL1 by quantifying inhibition of NEIL1-mediated cleavage and dissociation of quenched duplex DNA oligonucleotides, measured as fluorescence at 594 nm.
Test [5] deals with N-glycosylase/DNA lyase (Homo sapiens) (UniProt O15527). As to conditions: Compound Concentration 10.0 uM.
Sequence of N-glycosylase/DNA lyase (Homo sapiens) (O15527 whole entry): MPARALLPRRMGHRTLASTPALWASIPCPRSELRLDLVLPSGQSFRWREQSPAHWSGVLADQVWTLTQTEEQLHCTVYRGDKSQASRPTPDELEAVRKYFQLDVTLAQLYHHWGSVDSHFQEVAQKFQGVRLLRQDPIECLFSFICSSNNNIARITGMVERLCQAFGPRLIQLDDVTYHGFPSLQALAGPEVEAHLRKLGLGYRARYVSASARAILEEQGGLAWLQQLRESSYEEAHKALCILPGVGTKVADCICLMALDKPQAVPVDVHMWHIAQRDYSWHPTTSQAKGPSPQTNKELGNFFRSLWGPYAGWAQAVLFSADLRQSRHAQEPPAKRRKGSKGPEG
Description: Inhibition of OGG1 by quantifying inhibition of OGG1-mediated cleavage and dissociation of quenched duplex DNA oligonucleotides, measured as fluorescence at 594 nm. To generate a functional strand incision and increase turn-over this assay is coupled to APE1.
For test [6], the target named is T2, Adenine DNA glycosylase (Homo sapiens) (UniProt Q9UIF7).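 Further: human MUTYH activity read as 594 nm fluorescence from cleavage and release of a quenched DNA duplex, coupled with APE1 for strand incision, lower signal meaning inhibition.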
T2 sequence (whole entry): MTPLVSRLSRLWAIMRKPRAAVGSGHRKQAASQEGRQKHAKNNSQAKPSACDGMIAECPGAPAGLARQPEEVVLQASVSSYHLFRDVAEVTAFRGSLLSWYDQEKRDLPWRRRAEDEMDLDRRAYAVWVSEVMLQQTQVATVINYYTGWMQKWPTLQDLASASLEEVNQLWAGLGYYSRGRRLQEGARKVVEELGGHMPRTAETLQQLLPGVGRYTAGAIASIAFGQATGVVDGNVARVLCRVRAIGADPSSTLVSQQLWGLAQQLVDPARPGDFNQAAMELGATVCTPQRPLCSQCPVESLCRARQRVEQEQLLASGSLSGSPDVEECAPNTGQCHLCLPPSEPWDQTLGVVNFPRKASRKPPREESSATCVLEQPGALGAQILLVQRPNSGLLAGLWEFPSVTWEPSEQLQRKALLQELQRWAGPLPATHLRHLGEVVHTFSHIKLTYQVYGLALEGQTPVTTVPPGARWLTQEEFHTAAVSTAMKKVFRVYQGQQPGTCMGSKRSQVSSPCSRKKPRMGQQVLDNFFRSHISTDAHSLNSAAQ
As to conditions: Compound Concentration 10.0 uM, Hit No.
Description: Inhibition of MUTYH by quantifying inhibition of MUTYH-mediated cleavage and dissociation of quenched duplex DNA oligonucleotides, measured as fluorescence at 594 nm. To generate a functional strand incision and increase turn-over this assay is coupled to APE1.

Test [7] concerns the target DNA-3-methyladenine glycosylase (Homo sapiens) (UniProt P29372). As to conditions: Compound Concentration 10.0 uM, Hit No.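 Further: enzyme assay where MPG cuts a quenched duplex DNA oligonucleotide probe, paired with APE1 for strand incision and turnover, read as fluorescence at 594 nm.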
Description: Inhibition of MPG by quantifying inhibition of MPG-mediated cleavage and dissociation of quenched duplex DNA oligonucleotides, measured as fluorescence at 594 nm. To generate a functional strand incision and increase turn-over this assay is coupled to APE1.
For test [8], the target named is Methyl-CpG-binding domain protein 4 (Homo sapiens) (UniProt O95243). As to conditions: Compound Concentration 10.0 uM, Hit No.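 Further: MBD4 activity read as fluorescence at 594 nm from cleavage and release of a quenched duplex DNA oligonucleotide, with APE1 coupled to incise the strand and raise turnover.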
Sequence of Methyl-CpG-binding domain protein 4 (Homo sapiens) (O95243 whole entry, the tested form may be a part): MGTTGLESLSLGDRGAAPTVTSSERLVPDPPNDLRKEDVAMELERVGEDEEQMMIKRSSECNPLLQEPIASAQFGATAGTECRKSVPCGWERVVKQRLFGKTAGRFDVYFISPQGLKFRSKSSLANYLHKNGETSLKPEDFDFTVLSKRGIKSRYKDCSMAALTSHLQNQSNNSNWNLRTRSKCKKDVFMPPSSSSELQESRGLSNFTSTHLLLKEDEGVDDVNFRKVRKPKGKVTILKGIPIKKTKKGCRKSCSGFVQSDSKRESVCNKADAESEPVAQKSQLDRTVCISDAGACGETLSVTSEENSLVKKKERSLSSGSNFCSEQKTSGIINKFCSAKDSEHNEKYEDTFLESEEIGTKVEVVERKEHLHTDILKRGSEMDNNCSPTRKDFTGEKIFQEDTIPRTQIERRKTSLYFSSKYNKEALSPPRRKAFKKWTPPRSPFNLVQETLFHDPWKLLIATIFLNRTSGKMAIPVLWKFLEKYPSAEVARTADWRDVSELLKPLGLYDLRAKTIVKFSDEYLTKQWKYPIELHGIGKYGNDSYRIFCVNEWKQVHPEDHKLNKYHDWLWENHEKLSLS
Description: Inhibition of MBD4 by quantifying inhibition of MBD4-mediated cleavage and dissociation of quenched duplex DNA oligonucleotides, measured as fluorescence at 594 nm. To generate a functional strand incision and increase turn-over this assay is coupled to APE1.
In test [9] the target is T3, Endonuclease III-like protein 1 (Homo sapiens) (UniProt P78549).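 Further: enzyme assay tracking NTHL1 cutting and release of a quenched double-stranded DNA oligo substrate, read as fluorescence at 594 nm.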
T3 sequence (whole entry): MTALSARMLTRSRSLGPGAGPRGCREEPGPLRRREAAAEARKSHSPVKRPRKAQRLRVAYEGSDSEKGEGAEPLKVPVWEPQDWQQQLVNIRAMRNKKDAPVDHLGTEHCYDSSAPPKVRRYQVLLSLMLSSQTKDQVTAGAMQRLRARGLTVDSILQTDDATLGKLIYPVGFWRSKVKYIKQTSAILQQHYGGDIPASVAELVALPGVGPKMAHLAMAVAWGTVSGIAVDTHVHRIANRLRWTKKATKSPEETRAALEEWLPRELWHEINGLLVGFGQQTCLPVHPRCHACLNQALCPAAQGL
Particulars: Compound Concentration 10.0 uM, Hit No.
Description: Inhibition of NTHL1 by quantifying inhibition of NTHL1-mediated cleavage and dissociation of quenched duplex DNA oligonucleotides, measured as fluorescence at 594 nm.

Test [10] deals with T4, Endonuclease 8-like 2 (Homo sapiens) (UniProt Q969S2).
T4 sequence (whole entry): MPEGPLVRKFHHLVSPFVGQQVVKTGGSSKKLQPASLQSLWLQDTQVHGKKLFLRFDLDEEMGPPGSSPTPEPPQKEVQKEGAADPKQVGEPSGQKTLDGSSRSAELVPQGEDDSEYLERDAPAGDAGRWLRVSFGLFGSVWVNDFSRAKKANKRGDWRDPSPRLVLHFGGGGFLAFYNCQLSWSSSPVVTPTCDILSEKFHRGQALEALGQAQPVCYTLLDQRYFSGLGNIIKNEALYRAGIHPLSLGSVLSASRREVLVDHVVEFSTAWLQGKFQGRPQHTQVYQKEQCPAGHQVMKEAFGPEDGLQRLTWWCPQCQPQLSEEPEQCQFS
As to conditions: Compound Concentration 10.0 uM.
Description: Inhibition of NEIL2 by quantifying inhibition of NEIL2-mediated cleavage and dissociation of quenched duplex DNA oligonucleotides, measured as fluorescence at 594 nm.

Where a SMILES comes first, the peptide text is derived from it.

Sequence of DNA-3-methyladenine glycosylase (Homo sapiens) (P29372 whole entry, the tested form may be a part): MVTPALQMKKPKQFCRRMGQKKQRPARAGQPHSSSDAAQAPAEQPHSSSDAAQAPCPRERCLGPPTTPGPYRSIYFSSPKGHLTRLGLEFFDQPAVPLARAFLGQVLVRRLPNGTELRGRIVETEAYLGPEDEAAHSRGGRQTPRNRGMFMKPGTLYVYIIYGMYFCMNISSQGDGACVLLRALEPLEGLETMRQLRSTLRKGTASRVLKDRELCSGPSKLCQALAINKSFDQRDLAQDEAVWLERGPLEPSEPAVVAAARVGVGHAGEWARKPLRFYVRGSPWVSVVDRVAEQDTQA
Sequence of G/T mismatch-specific thymine DNA glycosylase (Homo sapiens) (Q13569 whole entry): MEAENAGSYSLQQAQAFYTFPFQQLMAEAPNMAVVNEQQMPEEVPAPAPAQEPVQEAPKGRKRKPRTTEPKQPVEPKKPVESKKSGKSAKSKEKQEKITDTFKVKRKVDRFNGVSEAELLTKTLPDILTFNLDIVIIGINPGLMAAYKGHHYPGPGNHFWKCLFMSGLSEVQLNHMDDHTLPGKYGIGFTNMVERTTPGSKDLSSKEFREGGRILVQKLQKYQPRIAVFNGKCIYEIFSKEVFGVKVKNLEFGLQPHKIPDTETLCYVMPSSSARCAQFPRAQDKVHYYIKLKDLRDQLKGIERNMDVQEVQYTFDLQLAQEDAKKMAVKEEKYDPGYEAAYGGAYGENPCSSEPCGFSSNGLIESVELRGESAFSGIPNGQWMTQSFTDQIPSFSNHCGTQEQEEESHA
Sequence of Uracil-DNA glycosylase (Homo sapiens) (P13051 whole entry): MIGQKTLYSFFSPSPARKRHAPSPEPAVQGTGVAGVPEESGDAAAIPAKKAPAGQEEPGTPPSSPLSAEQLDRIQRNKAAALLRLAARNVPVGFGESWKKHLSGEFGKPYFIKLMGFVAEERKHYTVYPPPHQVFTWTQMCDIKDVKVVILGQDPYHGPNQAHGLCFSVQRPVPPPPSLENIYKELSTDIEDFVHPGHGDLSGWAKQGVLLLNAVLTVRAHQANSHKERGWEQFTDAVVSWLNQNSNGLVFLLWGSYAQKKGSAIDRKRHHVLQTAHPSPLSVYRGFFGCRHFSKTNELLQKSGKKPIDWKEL

Broadly, the inhibition is the relative decrease from the control value, in per cent. Turning to `CN[C@@H]1Cc2cccc3[nH]c(=O)n(c23)C1`, the inhibition in [1] (Hit No) is 15.8%; in test [2], 0.551%; in test [3], -3.54%; in test [4], -2.21%; in test [5] (Hit No) it was -6.94%; in test [6], 46.8%. Also, the values for the inhibition in test [7], in test [8] and in [9] were -1.72%, 11.7% and 21.2%, respectively.
`CC[C@H](C)[C@H](NC(=O)[C@H](Cc1ccc(O)cc1)NC(=O)[C@@H](NC(=O)[C@H](CCCNC(=N)N)NC(=O)[C@@H](N)CC(=O)O)C(C)C)C(=O)N[C@@H](Cc1cnc[nH]1)C(=O)N[C@H](C)C(=O)O` (HELM PEPTIDE1{D.R.V.Y.I.H.[dA]}$$$$V2.0): the inhibition was 1.59% in test [1] (Hit No); -1.88% in [10] (Hit No); -8.77% in [2]; -2.81% in test [3]; 9.79% in test [4]; -9.35% in [5] (Hit No). Besides, the inhibition in [6] is -8.51%; in test [7], -4.39%; in test [8] it was 6.33%; in [9], 17.1%.
Regarding `Cn1c(C2(NC(=O)c3ccc4c(C5CCCC5)c(-c5ncc(Br)cn5)n(C)c4c3)CCC2)nc2ccc(/C=C/C(=O)O)cc21`, the inhibition in test [1] (Hit No) was determined as 101%; in [10] (Hit Yes) it was 40.3%; in test [2], 25.4%; in test [3], 13.1%; in test [4], 12.4%; in test [5] (Hit No) it was 60.3%. Moreover, the inhibition in [6] amounted to 68.7%; in test [7], 107%; in test [8], 69.3%; in [9] it was 0.685%.
As for `O=C(Nc1ccccc1Br)N[C@@H]1CCN(c2ccc(C(F)(F)F)cn2)C1`, the inhibition is 27.5% in [1] (Hit No); 2.71% in test [10] (Hit No); 15% in test [2]; 2.31% in [3]; -1.77% in [4]; 3.57% in [5] (Hit No). Also, the inhibition in test [6] is 26.9%; in [7], 35.3%; in [8] it was 41.6%; in test [9] it was 6.35%.
As to `Cc1onc(-c2ccc(F)cc2)c1COc1ccc(C(=O)N2CCS(=O)(=O)CC2)cn1`, the inhibition was 0.685% in [1] (Hit No); -7.99% in [10] (Hit No); -9.34% in test [2]; -0.327% in [3]; -9.77% in test [4]; -9.75% in test [5] (Hit No). In addition, the inhibition turned out to be 32% in [6], 18.2% in test [7], 21.2% in test [8] and 12.9% in test [9].
For the molecule `CC(C)(O)c1ccccc1CC[C@@H](SCC1(CC(=O)O)CC1)c1cccc(/C=C/c2ccc3ccc(Cl)cc3n2)c1`, the inhibition in test [1] (Hit Yes) is 66.5%; in test [10] (Hit No) it was 14%; in test [2] it was 11.9%; in test [3], 8.83%; in test [5] (Hit Yes), 61.2%; in test [6], 47.1%. In addition, the inhibition in test [7] was 53.9%; in test [8] it was 56.1%; in [9], 9.99%.
Turning to `CCCCc1nc(Cl)c(CO)n1Cc1ccc(-c2ccccc2-c2nnn[nH]2)cc1`, the inhibition was 8.31% in test [1] (Hit No); -6.19% in [2]; -9.96% in test [3]; -2.87% in test [4]; -0.971% in test [5] (Hit No); 4.88% in test [6]. The results for the inhibition in test [7], in [8] and in test [9] were -2.79%, 1.95% and 11.4%, respectively.
`Cc1cccc(C2CN(C)CCc3c2cc(O)c(O)c3Cl)c1` (centres undefined): the inhibition in [1] (Hit No) was 27.7%; in [2], -3.57%; in [3] it was -2.8%; in test [4], -4.88%; in [5] (Hit No), -8.27%; in [6], 33.4%. For the same molecule, the inhibition was determined as 15% in test [7], 26.4% in test [8] and 7.17% in [9].
With `COc1cc(N)c(Cl)cc1C(=O)NC1CN2CCC1CC2` (centres undefined), the inhibition in test [1] (Hit No) was -0.441%; in test [2], -3.07%; in test [3] it was -6.64%; in test [4], -0.139%; in test [5] (Hit No), 1%; in test [6], 0.595%. For the same molecule, the inhibition is -7.22% in test [7], -9.33% in test [8] and 17.1% in test [9].
`CCCCC[C@H](O)/C=C/[C@H]1[C@H](O)CC(=O)[C@@H]1CCCCCCC(=O)O`: the inhibition was 19.5% in test [1] (Hit No); -7.25% in [2]; -7.06% in [3]; 4.31% in test [4]; -9.68% in [5] (Hit No); -0.521% in [6]. In addition, the inhibition in [7] turned out to be 6.53%; in test [8], 3.22%; in [9] it was 22.9%.
For `COc1ccc2[nH]c(I)c(CCNC(C)=O)c2c1`, the inhibition in test [1] (Hit No) is 3.33%; in [2], -7.64%; in test [3], -9.84%; in test [4], -5.77%; in [5] (Hit No), -3.69%; in test [6], 10.2%. Also, the inhibition is -6.47% in test [7], 8.97% in test [8] and -1.91% in test [9].
In the case of `Cc1cc(C)cc(-c2cnc3cc(Cl)c(-c4cccc(O)c4)cc3c2OCCCN)c1`, the inhibition is 24.4% in test [1] (Hit No); 2.26% in test [10] (Hit No); 14.7% in test [2]; -7.52% in [3]; -3.25% in test [5] (Hit No); -5.74% in test [6]. The inhibition in test [7] was 9.86%; in [8], 9.27%; in [9], -4.67%.
Consider `N[C@@H](Cn1cc(F)c(=O)[nH]c1=O)C(=O)O`, for which the inhibition in [1] (Hit No) is 12.4%; in test [2], -7.64%; in test [3] it was -5.2%; in test [4], -2.06%; in [5] (Hit No), -9.73%; in [6], 6.98%. Further, the inhibition was 0.976% in test [7], 3.94% in test [8] and 0.568% in test [9].
Regarding `COc1ccc2c(c1)C(C(=O)N(Cc1ccc(N(C)C)cc1)c1ccc(C(C)C)cc1)CCC2` (centres undefined), the inhibition is 15.3% in [1] (Hit No); -6.91% in test [2]; -2.75% in [3]; 4.6% in test [4]; 3.53% in test [5] (Hit No); 34.4% in [6]. The results for the inhibition in [7], in [8] and in [9] were 34.2%, 26.8% and 0.568%, respectively.
In the case of `O=C(NCCNCC(O)COc1ccc(O)cc1)N1CCOCC1` (centres undefined), the inhibition was 9.41% in test [1] (Hit No); -1.43% in test [2]; -5.67% in [3]; 1.79% in test [4]; -7.78% in test [5] (Hit No); -0.651% in test [6]. Moreover, the inhibition in test [7] is -2.83%; in test [8] it was 9.4%; in [9], 8%.
